Assay results published in US20260242418A1, “CYCLIC PEPTIDES WITH ANTIBACTERIAL ACTIVITY AGAINST MULTIDRUG RESISTANT (MDR) PATHOGENS” (priority 2022, published 2026).
Like-named read-outs stand apart in the source and are kept apart here. Positions of bridges follow the written chain, without caps; N, C: chain ends. Non-standard residues stand in square brackets, D forms with d. Residues, ends and D or L forms follow the SMILES beside them. No end group written: not given here. dDab = NCC[C@@H](N)C(=O)O; Orn = NCCC[C@H](N)C(=O)O; Dab = NCC[C@H](N)C(=O)O

Assays:
human cells = details: cited from earlier work
Acinetobacter baumannii = type: cell-based
From the text: (§1) Minimum Inhibitory Concentration (MIC) of a peptide of SEQ D NO: 4 (abbreviated PLP-3) and colistin against a collection of clinically relevant and commercially available bacterial strains was obtained via broth microdilution. The protocol for antimicrobial activity determination, detailed below, consisted in a modification of Clinical & Laboratory Standards Institute (CLSI) Guidelines.
(§2) MIC is the value defined as the lowest concentration of an antimicrobial, in these tests either PLP-3 or colistin, which inhibits the macroscopic growth of a bacterial strain after 18-22 h incubation at 37° C. The results from these assays are obtained via visual identification of the bacterial bottom at the end of the wells of the testing plate. Since the wells contain decreasing concentrations of the compounds, the final result is indicated as a concentration, MIC, expressed in μg/mL of the agent (in this case PLP-3 or colistin).
(§3) Bacterial strains were streaked in Columbia Agar plates (Columbia Agar with 5% Sheep Blood 90 mm Stacker plates, BD) and incubated overnight at 37° C. Polypropylene round bottomed 96-well plates were filled with 50 μL/well of Mueller-Hinton Broth (MHB, CM0405, 500 g, ThermoFisher Scientific™ Oxoid™) and 50 μL of either colistin or PLP-3 (at 4× the chosen initial concentration of the test) were added to the first well of each row of the plate followed by serial dilutions up until the 10th column of the plate.
(§4) Finally, strain inoculums were prepared by diluting 1:100 0.5 McFarland solutions in MHB. Plates were then inoculated with 50 μL of the inoculums and covered with film before 18 to 22 h incubation at 37 C.
(§5) Three biological and three technical replicates were performed per strain.
(§6) Broth microdilution testing of 15 strains of each species provided MIC50 and […] values (Table 4). Strains were either from clinical origin, relevant to current clinical situation, or commercially available strains belonging to the American Type Culture Collection (ATCC), namely: A. baumannii 17978 and 19606, K. pneumoniae 13883 and P. aeruginosa 27853.
(§7) This panel represents an example of relevant MDR, colistin resistant and colistin susceptible strains from which to compare results. The minimum inhibitory concentration (MIC) is the lowest concentration of a chemical, usually a drug, which prevents visible growth of a bacterium or bacteria. MIC50 represents the antimicrobial concentration value that inhibits the growth of 50% of the bacterial strains and […] of each species from the tested panel of strains. Being colistin both a peptide and a last-resource antibiotic, it was included in these assays for comparison against a commercially available antibiotic.

Klebsiella pneumoniae = type: cell-based
From the text: as §1, §2, §3, §4, §5, §6, §7

Pseudomonas aeruginosa = type: cell-based
From the text: as §1, §2, §3, §4, §5, §6, §7
P. aeruginosa ATCC 27853 strain (commercially available from the American Type Collection Culture) was used as control by performing MICs to colistin and PLP-3 in all broth microdilution assays

[1] = in vivo, iv; cited from earlier work
[2] = panel of 15 A. baumannii strains
[3] = panel of 15 K. pneumoniae strains
[4] = panel of 15 P. aeruginosa strains

For “RGGRLCYCRRRFCVCVGR (disulfide 8-13, 6-15; listed as Sus scrofa) [PG-1]”, the “haemolysis and toxicity against human cells” value (human cells) is listed as “significant haemolysis and toxicity”.

For colistin [reference compound], the MIC50 (Acinetobacter baumannii; [2]) was 0,5 μg/mL, the MIC90 (Acinetobacter baumannii; [2]) was 64 µg/mL and the MIC (Acinetobacter baumannii; strain 8* (MDR)) was 0.5 µg/mL. It also gave an MIC (Acinetobacter baumannii; strain 19* (MDR)) of 0.25 µg/mL, an MIC (Acinetobacter baumannii; strain 80* (MDR)) of 0.5 µg/mL and an MIC (Acinetobacter baumannii; strain 174* (MDR)) of 0.25 µg/mL. For the same compound, the MIC (Acinetobacter baumannii; strain 180* (MDR)) was 0.5 µg/mL, the MIC (Acinetobacter baumannii; strain 210* (MDR)) was 8 µg/mL and the MIC (Acinetobacter baumannii; strain 226* (MDR)) was 0.25 µg/mL. It also gave an MIC (Acinetobacter baumannii; strain 253* (MDR)) of 0.25 µg/mL, an MIC (Acinetobacter baumannii; strain 317) of 0.25 µg/mL and an MIC (Acinetobacter baumannii; strain 383) of 0.25 µg/mL. It also gave an MIC (Acinetobacter baumannii; strain 19606) of 0.5 µg/mL, an MIC (Acinetobacter baumannii; strain ATCC 17978) of 0.25 µg/mL and an MIC (Acinetobacter baumannii; strain CR17* (MDR)) of over 64 µg/mL. For the same compound, the MIC (Acinetobacter baumannii; strain CR49) was 64 µg/mL, the MIC (Acinetobacter baumannii; strain CR86) was 64 µg/mL and the MIC50 (Klebsiella pneumoniae; [3]) was 8 µg/mL. It also gave an MIC90 (Klebsiella pneumoniae; [3]) of over 64 µg/mL, an MIC (Klebsiella pneumoniae; strain 145* (MDR)) of 32 µg/mL and an MIC (Klebsiella pneumoniae; strain 398* (MDR)) of over 64 µg/mL. The MIC (Klebsiella pneumoniae; strain 545) was 0.25 µg/mL, the MIC (Klebsiella pneumoniae; strain 674* (MDR)) was 0.25 µg/mL and the MIC (Klebsiella pneumoniae; strain 681* (MDR)) was over 64 µg/mL. For the same compound, the MIC (Klebsiella pneumoniae; strain 716* (MDR)) was 0.5 µg/mL, the MIC (Klebsiella pneumoniae; strain 741* (MDR)) was 0.5 µg/mL and the MIC (Klebsiella pneumoniae; strain 851* (MDR)) was 0.5 µg/mL. For the same compound, the MIC (Klebsiella pneumoniae; strain 994* (MDR)) was over 64 µg/mL, the MIC (Klebsiella pneumoniae; strain 1052* (MDR)) was over 64 µg/mL and the MIC (Klebsiella pneumoniae; strain 1078* (MDR)) was 64 µg/mL. The MIC (Klebsiella pneumoniae; strain 1129* (MDR)) was 0.5 µg/mL, the MIC (Klebsiella pneumoniae; strain 1478* (MDR)) was over 64 µg/mL and the MIC (Klebsiella pneumoniae; strain 1480* (MDR)) was 0.25 µg/mL. For the same compound, the MIC (Klebsiella pneumoniae; strain ATCC 13883) was 1 µg/mL, the MIC50 (Pseudomonas aeruginosa; [4]) was 0,5 μg/mL and the MIC90 (Pseudomonas aeruginosa; [4]) was 64 µg/mL. For the same compound, the MIC (Pseudomonas aeruginosa; strain 36a) was at most 0.125 µg/mL, the MIC (Pseudomonas aeruginosa; strain 38a) was 0.25 µg/mL and the MIC (Pseudomonas aeruginosa; strain ATCC 27853 (Table 2)) was at most 0.125 µg/mL. For the same compound, the MIC (Pseudomonas aeruginosa; strain ATCC 27853, control in the A. baumannii panel (Table 1)) was at most 0.125 µg/mL, the MIC (Pseudomonas aeruginosa; strain ATCC 27853, control in the K. pneumoniae panel (Table 3)) was 0.25 µg/mL and the MIC (Pseudomonas aeruginosa; strain C1) was 0.5 µg/mL. For the same compound, the MIC (Pseudomonas aeruginosa; strain C2) was 1 µg/mL, the MIC (Pseudomonas aeruginosa; strain C3) was 0.5 µg/mL and the MIC (Pseudomonas aeruginosa; strain C4) was 0.5 µg/mL. It also gave an MIC (Pseudomonas aeruginosa; strain R1) of over 64 µg/mL, an MIC (Pseudomonas aeruginosa; strain R2) of 64 µg/mL and an MIC (Pseudomonas aeruginosa; strain R3* (MDR)) of 32 µg/mL. The MIC (Pseudomonas aeruginosa; strain S1) was at most 0.125 µg/mL, the MIC (Pseudomonas aeruginosa; strain S2* (MDR)) was at most 0.125 µg/mL and the MIC (Pseudomonas aeruginosa; strain S3) was 0.5 µg/mL. It also gave an MIC (Pseudomonas aeruginosa; strain S4) of at most 0.125 µg/mL and an MIC (Pseudomonas aeruginosa; strain S5) of at most 0.125 µg/mL.

In the case of `CC[C@H](C)[C@@H]1NC(=O)[C@H](Cc2c[nH]c3ccccc23)NC(=O)[C@H]([C@@H](C)O)NC(=O)[C@@H]2CCCN2C(=O)[C@H]2CCCN2C(=O)[C@H](CO)NC(=O)[C@H](C)NC(=O)[C@H](CCN)NC(=O)[C@H](CCN)NC(=O)[C@H](Cc2c[nH]c3ccccc23)NC(=O)[C@H](CCN)NC(=O)[C@@H](CCN)NC(=O)[C@H](CCCN)NC(=O)[C@H](CCN)NC1=O` [Murepavadin, cyclo[Ala-Ser-D-Pro-Pro-Thr-Trp-Ile-Dab-Orn-D-Dab-Dab-Trp-Dab-Dab]] (cyclo(TWI[Dab][Orn][dDab][Dab]W[Dab][Dab]AS[dP]P)), the “adverse finding in phase-III clinical trials” value [1] is given as “kidney damage in over half of the patients”.
